ChEMBL document CHEMBL1201862, “PubChem BioAssay data set” (2004)
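How tested: cells in 96-well plates exposed to compound for 48 hours at five concentrations. Abbreviation: GI50, concentration required for 50% inhibition of growth.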 Calls of active or inactive are those of the source. No stated cut-off is given here; in the data, active = GI50 up to about 1.1 µM and inactive = higher.

Columns and labels:
Experiment in all cases: NCI-60 cell line screen, 48 h
[1] = test system: NCI-H23
[2] = test system: LXFL 529
[3] = test system: DMS-114
[4] = test system: SF-268
[5] = test system: A498
[6] = test system: OVCAR-8
[7] = test system: MOLT-4
[8] = test system: DLD-1
[9] = test system: KM12
[10] = test system: M19-MEL
[11] = test system: NCI-H460
[12] = test system: OVCAR-3
[13] = test system: HCT-15
[14] = test system: KM-20L2
[15] = test system: COLO 205
[16] = test system: SK-OV-3
[17] = test system: TK-10
[18] = test system: SK-MEL-2
[19] = test system: NCI-H522
[20] = test system: RPMI-8226
[21] = test system: HT-29
[22] = test system: IGROV-1
[23] = test system: OVCAR-4
[24] = test system: EKVX
[25] = test system: UACC-257
[26] = test system: HCC 2998
[27] = test system: Malme-3M
[28] = test system: XF498
[29] = test system: SK-MEL-28
[30] = test system: HCT-116
[31] = test system: UO-31
[32] = test system: M14
[33] = test system: CCRF-CEM
[34] = test system: SN12C
[35] = test system: CAKI-1
[36] = test system: SW-620
[37] = test system: K562
[38] = test system: SF-539
[39] = test system: LOX IMVI
[40] = test system: UACC-62
[41] = test system: HL-60
[42] = test system: 786-0
[43] = test system: ACHN
[44] = test system: SNB-19
[45] = test system: A549
[46] = test system: U-251
[47] = test system: SF-295
[48] = test system: DMS-273
[49] = test system: SK-MEL-5
[50] = test system: HOP-62
[51] = test system: OVCAR-5
[52] = test system: RXF 393
[53] = test system: SR
[54] = test system: HOP-92
[55] = test system: SNB-75
[56] = test system: NCI-H226
[57] = test system: SNB-78

COc1ccc(OC)c2c1C(=O)C1CC1(Br)C2=O (stereo not given)
GI50 [1]: > 100 µM (inactive) | GI50 [2]: > 100 µM (inactive) | GI50 [3]: > 100 µM (inactive) | GI50 [4]: > 100 µM (inactive) | GI50 [5]: > 100 µM (inactive) | GI50 [6]: > 100 µM (inactive) | GI50 [7]: > 100 µM (inactive) | GI50 [8]: > 100 µM (inactive) | GI50 [9]: > 100 µM (inactive) | GI50 [10]: > 100 µM (inactive) | GI50 [11]: > 100 µM (inactive) | GI50 [12]: > 100 µM (inactive) | GI50 [13]: > 100 µM | GI50 [14]: > 100 µM (inactive) | GI50 [15]: > 100 µM (inactive) | GI50 [16]: > 100 µM (inactive) | GI50 [17]: > 100 µM (inactive) | GI50 [18]: > 100 µM (inactive) | GI50 [19]: > 100 µM (inactive) | GI50 [20]: > 100 µM (inactive) | GI50 [21]: > 100 µM (inactive) | GI50 [22]: > 100 µM (inactive) | GI50 [23]: > 100 µM (inactive) | GI50 [24]: 73.1 µM (inactive) | GI50 [25]: > 100 µM (inactive) | GI50 [26]: > 100 µM (inactive) | GI50 [27]: > 100 µM (inactive) | GI50 [28]: > 100 µM (inactive) | GI50 [29]: > 100 µM (inactive) | GI50 [30]: > 100 µM (inactive) | GI50 [31]: > 100 µM (inactive) | GI50 [32]: > 100 µM (inactive) | GI50 [33]: > 100 µM (inactive) | GI50 [34]: > 100 µM (inactive) | GI50 [35]: > 100 µM (inactive) | GI50 [36]: > 100 µM (inactive) | GI50 [37]: > 100 µM (inactive) | GI50 [38]: > 100 µM (inactive) | GI50 [39]: > 100 µM (inactive) | GI50 [40]: > 100 µM (inactive) | GI50 [41]: > 100 µM (inactive) | GI50 [42]: > 100 µM (inactive) | GI50 [43]: > 100 µM (inactive) | GI50 [44]: > 100 µM (inactive) | GI50 [45]: > 100 µM (inactive) | GI50 [46]: > 100 µM (inactive) | GI50 [47]: > 100 µM (inactive) | GI50 [48]: > 100 µM (inactive) | GI50 [49]: > 100 µM (inactive) | GI50 [50]: > 100 µM (inactive) | GI50 [51]: > 100 µM (inactive)

COc1cc(CNc2ccc(C)cc2)cc(OC)c1OC
GI50 [1]: 0.361 µM (active) | GI50 [2]: 0.635 µM (active) | GI50 [3]: 0.277 µM (active) | GI50 [4]: 0.741 µM (active) | GI50 [6]: 0.624 µM (active) | GI50 [7]: 0.331 µM (active) | GI50 [8]: 0.45 µM (active) | GI50 [10]: 0.33 µM (active) | GI50 [11]: 0.252 µM (active) | GI50 [12]: 0.213 µM (active) | GI50 [14]: 0.246 µM (active) | GI50 [15]: 0.219 µM (active) | GI50 [16]: 0.301 µM (active) | GI50 [18]: 0.229 µM (active) | GI50 [19]: 0.255 µM (active) | GI50 [20]: 0.467 µM (active) | GI50 [22]: 0.659 µM (active) | GI50 [52]: 0.163 µM (active) | GI50 [28]: 0.962 µM (active) | GI50 [31]: 0.807 µM (active) | GI50 [33]: 0.252 µM (active) | GI50 [36]: 0.149 µM (active) | GI50 [53]: 0.138 µM (active) | GI50 [54]: 3.34 µM (inactive) | GI50 [37]: 0.0826 µM (active) | GI50 [39]: 0.621 µM (active) | GI50 [41]: 0.0764 µM (active) | GI50 [42]: 0.384 µM (active) | GI50 [55]: 0.316 µM (active) | GI50 [44]: 0.533 µM (active) | GI50 [45]: 0.5 µM (active) | GI50 [46]: 0.356 µM (active) | GI50 [48]: 0.103 µM (active) | GI50 [49]: 0.472 µM (active) | GI50 [50]: 0.386 µM (active) | GI50 [51]: 1.74 µM (inactive)

COc1cc(C2Oc3cc(-c4oc5cc(O)cc(O)c5c(=O)c4O)ccc3OC2CO)ccc1O (stereo not given) [DEHYDROSILYLBIN]
GI50 [1]: 4.3 µM (inactive) | GI50 [2]: 5.26 µM (inactive) | GI50 [3]: 9.86 µM (inactive) | GI50 [4]: 7.46 µM (inactive) | GI50 [5]: 9.27 µM (inactive) | GI50 [6]: 30.1 µM (inactive) | GI50 [7]: 3.9 µM (inactive) | GI50 [8]: 14.5 µM (inactive) | GI50 [9]: 20.1 µM (inactive) | GI50 [10]: 14.4 µM (inactive) | GI50 [11]: 3.72 µM (inactive) | GI50 [12]: 21.5 µM (inactive) | GI50 [13]: 9.31 µM | GI50 [15]: 26.7 µM (inactive) | GI50 [16]: 21.4 µM (inactive) | GI50 [17]: 10.9 µM (inactive) | GI50 [18]: 7.38 µM (inactive) | GI50 [19]: 3.03 µM (inactive) | GI50 [20]: 4.41 µM (inactive) | GI50 [21]: 25.9 µM (inactive) | GI50 [22]: 10.9 µM (inactive) | GI50 [23]: 20.7 µM (inactive) | GI50 [52]: 2.31 µM (inactive) | GI50 [25]: 32 µM (inactive) | GI50 [26]: 24.8 µM (inactive) | GI50 [27]: 22.8 µM (inactive) | GI50 [28]: 10.8 µM (inactive) | GI50 [29]: 10.1 µM (inactive) | GI50 [30]: 4.71 µM (inactive) | GI50 [31]: 2.64 µM (inactive) | GI50 [32]: 12.4 µM (inactive) | GI50 [33]: 5.77 µM (inactive) | GI50 [34]: 10.8 µM (inactive) | GI50 [35]: 14 µM (inactive) | GI50 [36]: 8.55 µM (inactive) | GI50 [53]: 4.61 µM (inactive) | GI50 [54]: 10.5 µM (inactive) | GI50 [37]: 11 µM (inactive) | GI50 [38]: 4.24 µM (inactive) | GI50 [40]: 3.42 µM (inactive) | GI50 [41]: 9.48 µM (inactive) | GI50 [56]: 8.51 µM (inactive) | GI50 [42]: 8.55 µM (inactive) | GI50 [55]: 5 µM (inactive) | GI50 [43]: 7.64 µM (inactive) | GI50 [44]: 7.43 µM (inactive) | GI50 [45]: 9.14 µM (inactive) | GI50 [46]: 6.68 µM (inactive) | GI50 [47]: 10.7 µM (inactive) | GI50 [48]: 5.85 µM (inactive) | GI50 [49]: 15.4 µM (inactive) | GI50 [57]: > 46.6 µM (inactive) | GI50 [50]: 11.2 µM (inactive)
